Results from US20150368642A1, “LNA OLIGONUCLEOTIDE CARBOHYDRATE CONJUGATES” (HOFFMANN-LA ROCHE INC., priority 2013, published 2015).
Strand notation (5' to 3'): a small letter for the sugar, then the base; units joined by * are phosphorothioate-linked, units joined directly phosphodiester-linked; [ ] holds rarer units or linkages, { } end groups; capitals alone tell only the bases. {Conj1a} = GalNAc carbohydrate conjugate Conj1a; l = locked nucleic acid (LNA); [5mC] = 5-methylcytosine; d = 2'-deoxy (DNA)

Experiments:
ApoB mRNA = assay: In vivo silencing of ApoB mRNA with monoGalNAc conjugates (branched DNA assay); conditions: Example 4; C57BL6 mice, single 1 mg/kg i.v., day 7; compared to unconjugated #12; FIG. 7a
Text: Capital letters are LNA nucleosides (such as beta-D-oxy LNA), lower case letters are a DNA nucleoside. Subscript s represents a phosphorothioate internucleoside linkage (region A). LNA cytosines are optionally 5-methyl cytosine. The 2PO linker (region B) is 5′ to the sequence region A, and comprises of two DNA nucleosides linked by phosphodiester linkage, with the internucleoside linkage between the 3′ DNA nucleoside of region A and the 5′ LNA nucleoside of region A also being phosphodiester. A linkage group (Y) may be used to link the conjugate group, when present, to region B, or A (SEQ ID NO 8 and 11). To compare the monoGalNAc conjugates with different linkers and the GalNAc cluster C57BL6 mice were treated i.v. with saline control or with a single dose of 1 mg/kg of ASO conjugated to Mono-GalNAc either without biocleavable linker, with Dithio-linker (SS) or with DNA/PO-linker (PO) (FIG. 7a) or with 0.25 mg/kg of ASO conjugated to Mono-GalNAc or GalNAc cluster (FIG. 7b). After 7 days the animals were sacrificed and RNA was isolated from liver and kidney samples and analysed for ApoB mRNA expression.
C57BL6 mice were dosed i.v. with a single dose of 1 mg/kg or 0.25 mg/kg ASO formulated in saline or saline alone according to the above table. […] Total RNA was extracted from liver and kidney samples and ApoB mRNA levels were analysed using a branched DNA assay.

ApoB = assay: Non-human primate study, serum ApoB and LDL-C (ApoB conjugates); format: in vivo, cynomolgus monkeys; conditions: Example 7; single i.v. dose; FIG. 16
Protocol: The primary objective for this study is to investigate selected lipid markers over 7 weeks after a single slow bolus injection of anti-PCSK9 and anti-ApoB LNA conjugated to GalNac cluster (Conj2a) to cynomolgus monkeys and assess the potential toxicity of compounds in monkey. The compounds which were prepared in sterile saline (0.9%) at an initial concentration of 0.625 and 2.5 mg/ml).
Male (PCSK9) or female monkeys (ApoB) monkeys of at least 24 months old are used, and given free access to tap water and 180 g of MWM(E) SQC SHORT expanded diet (Dietex France, SDS, Saint Gratien, France) will be distributed daily per animal. The total quantity of food distributed in each cage will be calculated according to the number of animals in the cage on that day. In addition, fruit or vegetables will be given daily to each animal. The animals will be acclimated to the study conditions for a period of at least 14 days before the beginning of the treatment period. During this period, pre-treatment investigations will be performed. The animals are dosed i.v. at a dose if, for example, 0.25 mg/kg or 1 mg/kg. The dose volume will be 0.4 mL/kg. 2 animals are used per group. After three weeks, the data will be analyzed and a second group of animals using a higher or lower dosing regimen may be initiated—preliminary dose setting is 0.5 mg/kg and 1 mg/kg, or lower than that based on the first data set.
The dose formulations will be administered once on Day 1. Animals will be observed for a period of 7 weeks following treatment, and will be released from the study on Day 51. Day 1 corresponds to the first day of the treatment period. Clinical observations and body weight and food intake (per group) will be recorded prior to and during the study.
The following parameters will be determined for all surviving animals at the occasions indicated below: • full biochemistry panel (complete list below)—on Days −8, 15 and 50, • liver Safety (ASAT, ALP, ALAT, TBIL and GGT only)—on Days 4, 8, 22 and 36, • lipid profile (Total cholesterol, HDL-C, LDL-C and Triglycerides) and Apo-B only—on Days −1, 4, 8, 22, 29, 36, and 43.
Blood (approximately 1.0 mL) is taken into lithium heparin tubes (using the ADVIA 1650 blood biochemistry analyzer): Apo-B, sodium, potassium, chloride, calcium, inorganic phosphorus, glucose, HDL-C, LDL-C, urea, creatinine, total bilirubin (TBIL), total cholesterol, triglycerides, alkaline phosphatase (ALP), alanine aminotransferase (ALAT), aspartate aminotransferase (ASAT), creatine kinase, gamma-glutamyl transferase (GGT), lactate dehydrogenase, total protein, albumin, albumin/globulin ratio.
Other Analysis: WO2011009697 & WO2010142805 provides the methods for the following analysis: qPCR, PCSK9/ApoB mRNA analysis, Other analysis includes PCSK9/ApoB protein ELISA, serum Lp(a) analysis with ELISA (Mercodia No. 10-1106-01), tissue and plasma oligonucleotide analysis (drug content), Extraction of samples, standard- and QC-samples, Oligonucleotide content determination by ELISA. […] There was no indication of hepatotoxicity or nephrotoxicity with the ApoB targeting compounds.

HBV = HBV mouse hydrodynamic tailvein injection model, HBV DNA in liver by qPCR; format: in vivo, Balb/C mouse
Text: An LNA oligomer can be assessed for antiviral effect in vivo in a mouse strain, such as BALB/c or C57B/6, where HBV replication can be established by hydrodynamic tail vein injection of a plasmid, such as pAAV/HBV1.3, expressing a partially repeated HBV pregenomic RNA (J Virol. 1995 October; 69(10):6158-69) or pAAV2/HBV1.3, a derivative thereof (WuxiAppTech, Wuxi, China). The injection of the plasmid in a high volume of saline, equal to 8-12% of the body mass of the mouse, will result in the accumulation and expression of the viral pregenomic RNA in the liver, subsequently leading to the establishment of an acute HBV infection. Treatment of the animals with an LNA oligomer can be initiated 1 or more days before the injection of the plasmid or 1 day after the injection of the plasmid. Delivery of the LNA oligomer in saline can be done by intravenous or subcutaneous injection.
An in vivo experiment was performed on SEQ ID 55 and SEQ ID 56, the latter being a GalNAC conjugate of the former (conj1a). The LNA compounds were tested for efficacy against HBV in the mouse hydrodynamic tailvein injection model using the Balb/C mouse strain. LNA compounds were be tested at equimolar doses; 2 and 10 mg/kg, single injection (SEQ ID 55) and at 2.7 and 13.5 mg/kg, single injection (SEQ ID 56). The LNA anti-HBV compounds were compared to saline and to entecavir, an inhibitor of the HBV reverse transcriptase. Entecavir was dosed p.o. daily at 0.1 mg/kg. Where applicable, the animals were treated with the LNA compound 24 hours before the hydrodynamic injection. Entecavir was given in daily doses as described starting 24 hours after the hydrodynamic injection. […] All the animals were monitored on a daily basis for body weight changes and clinical signs for the duration of the in vivo study. […] All the blood samples were collected in tubes containing heparin sodium The portion of the left lobe of each liver was used to determine the level of HBV DNA replication by qPCR, as copies per unit weight of liver in which the quantity of total HBV DNA level is subtracted by the quantity of pAAV2/HBV DNA level. […]

SEQ ID NO 8: GsCsaststsgsgstsastsTsCsA, no cleavable linker, monoGalNAc; ApoB (GCATTGGTATTCA; sugars from the 5' end l2 d8 l3, all phosphorothioate, methylation of C not given here; monoGalNAc conjugated without cleavable linker)
ApoB mRNA knock down, activity in the liver (ApoB mRNA): clearly improved activity in the liver

SEQ ID NO 10: GsCsaststsgsgstsastsTsCsA, 2PO-DNA (5′ca3′), monoGalNAc; ApoB (CAGCATTGGTATTCA; listed as DNA, chemistry not fully specified)
ApoB mRNA knock down, activity in the liver (ApoB mRNA): clearly improved activity in the liver

SEQ ID NO 14: GsCsaststsgsgstsastsTsCsA, 2PO-DNA (5′ca3′), cholesterol; ApoB (CAGCATTGGTATTCA; chemistry not fully specified)
pharmacology (serum ApoB and LDL-C) (ApoB): did not exhibit significant pharmacology

SEQ ID NO 17: GsTstsgsascsascstsgsTsC, GalNAc cluster Conj2a; ApoB (GTTGACACTGTC; listed as DNA, chemistry not fully specified)
pharmacology (serum ApoB and LDL-C) (ApoB): effective
potency compared to the cholesterol conjugated compound (ApoB): considerably more potent than the cholesterol conjugated compound

SEQ ID NO 32: GsTstsgsascsascstsgsTsC, 2PO-DNA (5′ca3′), cholesterol; ApoB (CAGTTGACACTGTC; listed as DNA, chemistry not fully specified)
pharmacology (serum ApoB and LDL-C) (ApoB): effective

SEQ ID NO 56: 5′-GsAsGsGscsastsasgscsasgs^mCsAsGsG-3′ with a 5′ GalNac(Conj1a) ({Conj1a}-lG*lA*lG*lG*dC*dA*dT*dA*dG*dC*dA*dG*l[5mC]*lA*lG*lG)
reduction in viral titer in the liver (HBV; 8 days after delivery of a single dose and 7 days after the initiation of the infection): 90%
effect on replication of HBV / HBV DNA level in the liver (HBV; Balb/C mice, single injection 24 hours before hydrodynamic injection, SEQ ID 55 2 and 10 mg/kg, SEQ ID 56 2.7 and 13.5 mg/kg): excellent dose-dependent antiviral effect
